This series deals with subcutaneous HT1080 (FAP−) and HT1080-hFAP (FAP+) tumors. Nature of the series: Pharmacokinetic modeling (2TCM, Patlak) of small animal PET with extracorporeal arterial input function. The class given is in vivo, mouse. Further details: Vs (distribution volume) / k1 / k2 / k3 / k4: unit not given here. Conditions: geometric mean ± SD; for Vs (distribution volume) / k1 / k2 / k3 / k3/k4 / k4: 2TCM. How it is done:
Before PET/MRI at day 12, p.i. mice received surgery to establish an extracorporeal circulation shunting of the blood from the femoral artery to the tail vein or contralateral femoral vein as described previously. At 40 cm from the femoral artery, the shunt (0.3 mm inner diameter silicon; total extracorporeal volume 56.6 μL) was led through a Twilite coincidence detector. Acquired blood activity curves were calibrated with a separately measured calibration factor for ^68Ga according to vendor’s instructions. The curves were corrected for delay and dispersion based on a numerical deconvolution, using dispersion kernels derived from measuring step functions at defined pumping speeds. Standard 2-tissue compartmental (2TCM) pharmacokinetic (PK) modeling and Patlak analysis was performed for the triceps muscle, and FAP^− and FAP^+ tumors using PMOD version 3.703 (PMOD Technologies LLC) and was based on mean PET VOI time activity curves and Twilite-based extracorporeal arterial input functions (AIF). AIF plasma fraction was calculated based on direct hematocrit measurements after imaging (StatStrip® Hb/Hct, Nova Biomedical).

Each structure is given as a SMILES string.

For the compound `CN(CCCN1CCN(C(=O)CN2CCN(CC(=O)[O-])CCN(CC(=O)[O-])CCN(CC(=O)[O-])CC2)CC1)c1ccc2nccc(C(=O)NCC(=O)N3CC(F)(F)C[C@H]3C#N)c2c1.[68Ga+3]` [^68Ga-FAPI-46, [^68Ga]Ga-FAPI-46], under “tumor FAP+”, the “Vs (distribution volume)” value was 0.25 ± 0.29, the k1 turned out to be 0.042 ± 0.012, the k2 amounted to 0.298 ± 0.038 and the k3 came to 0.029 ± 0.024. Besides, under “tumor FAP+”, the k3/k4 was determined as 1.77 ± 2.74, the k4 is reported as 0.017 ± 0.011, the Patlak intercept stood at 0.176 ± 0.035 and the Patlak slope is 0.002 ± 0.001. For the setting “tumor FAP+, listed as FAPI-46”, the “Vs (distribution volume)” value turned out to be 0.246 ± 0.287 and the k3/k4 worked out at 1.770 ± 2.737. Moreover, where the note is “tumor FAP−”, the “Vs (distribution volume)” value is reported as 0.121 ± 0.227, the k1 worked out at 0.049 ± 0.003, the k2 was determined as 0.323 ± 0.115 and the k3 turned out to be 0.012 ± 0.031. Moreover, under “tumor FAP−”, the k3/k4 was 0.801 ± 0.908, the k4 amounted to 0.015 ± 0.038, the Patlak intercept is listed as 0.207 ± 0.019 and the Patlak slope turned out to be 0.000 ± 0.000.
